SMILES strings stand for the structures. Structures can show the parent of a compound that is named as a salt.

These results are taken from patent US6558435B2, “Reactive crystallization method to improve particle size” (Pfizer, Inc., priority 2000, dated 2003).

What all share (format): physicochemical
Data set [1] is described as follows: Particle size analysis by Malvern light scattering, hexane as dispersant. Particulars: for D90, 90% of the particles by volume less than / volume mean diameter, D[4,3] / fines (particles below about 1 micron detected): Malvern, hydrochloride monohydrate; for D90, 90% of the particles by volume less than / volume mean diameter, D[4,3]: dried crystals; for particle size distribution compared with batch crystallized and milled sample: impinging jet material vs comparative 15.6 kg sample. The method, then: X-ray diffraction (XRD) and differential scanning calorimetry (DSC) indicated the correct form of Ziprasidone hydrochloride monohydrate was produced by the impinging jet reactive crystallization process. The dried powder crystals were sieved through a 600 micron sieve as a means to delump. The particles were analyzed by Malvern using hexane as a dispersant.
The crystals were sieved through a 600 micron sieve to delump and the particles were analyzed by Malvern using hexane as a dispersant. […] According to patent EU 0 965 343 A2 (08.06.1999), the most preferred mean particle size of Ziprasidone hydrochloride monohydrates is in the 5-30 micron range obtained through milling operations which the present invention achieves without the need for high intensity milling. The particle sizes stipulated herein and in the claims refer to particle sizes determined with Malvern light scattering.
In a comparative 15.6 kg sample produced by the typical batch crystallization process method followed by milling using a pin mill at 10,000 rpm, the volume mean diameter, D[4,3], was 23.6 microns with 90% of the particles by volume less than 51 microns, while 5.4% of the batch by the volume distribution had particle size less than 1 micron indicating a much greater number of fines. […]

The nature of data set [2]: Dry particle sizing analysis (SympaTec). The method, then:
The crystals were dried in a vacuum oven at 50° C. and 10 inches of Hg with an air bleed for 24 hours. The dried material was sieved through a 30 mesh (600 μm) screen as a means to delump. Differential scanning calorimetry and x-ray diffraction confirmed the complete conversion to the Voriconazole free-base. No unreacted Voriconazole camphorsulfonate was detected.
Specification of product conventionally obtained by jet milling is 90% less than 130 microns and 50% less than 50 microns.

Data set [3] can be described thus: Particle size analysis (Aerosizer). As for the experimental part: Flow of neat methanol and ethyl acetate was initiated through their respective jets at 20 ml/min for 5 seconds from separate reservoirs to establish steady state flow. By way of two 3-way valves the solutions of 5,8,14-triazatetracyclo[10.3.1.0^2,11.0^4,9]-hexadeca-2(11),3,5,7,9-pentaene free base solution and (L)-tartaric acid were switched on so they would impinge each other at the same 20 ml/min flow rate. The velocities through the jets were 13.4 meters/sec. After 1 minute of impingement the flows were stopped and the resulting slurry was allowed to age in the agitated receiver for 5 minutes. The slurry was vacuum filtered and dried at 40° C. overnight and delumped through a 500 micron sieve.

The nature of data set [4]: Particle size of the jet milled seed (method not given). As for the experimental part: A receiving vessel contained 250 ml of methanol and 250 ml of ethyl acetate to which 20 milligrams of jet milled 5,8,14-triazatetracyclo[10.3.1.0^2,11.0^4,9]-hexadeca-2(11),3,5,7,9-pentaene (L)-tartrate were added as seed. […] The receiver was equipped with magnetic stirrer to suspend the seed in the methanol-ethyl acetate solvent system. The impinging jet apparatus was submerged in the receiver vessel with both jets having inside diameters of 0.007 inches (ID).

For `O=C1Cc2cc(CCN3CCN(c4nsc5ccccc45)CC3)c(Cl)cc2N1` [Example 1, Ziprasidone hydrochloride monohydrate], in data set [1], the “D90, 90% of the particles by volume less than” value was found to be 83 microns; the “volume mean diameter, D[4,3]” value stood at 43 microns; the “fines (particles below about 1 micron detected)” value was “No particles with diameters of less that 0.9 micron were detected”; the “particle size distribution compared with batch crystallized and milled sample” value was “narrower particle size distribution with fewer fines produced”.
The corresponding values for `O=C1Cc2cc(CCN3CCN(c4nsc5ccccc45)CC3)c(Cl)cc2N1` [Example 2, Ziprasidone hydrochloride monohydrate] are 41 microns, 22.5 microns, “No particles of less that 1.0 micron were detected” and “narrower particle size distribution with fewer fines produced”.
Consider `O=C1Cc2cc(CCN3CCN(c4nsc5ccccc45)CC3)c(Cl)cc2N1` [Example 3, Ziprasidone hydrochloride monohydrate], for which, in data set [1], the “D90, 90% of the particles by volume less than” value came to 210 microns; the “volume mean diameter, D[4,3]” value was 104 microns; the “fines (particles below about 1 micron detected)” value is reported as “No particles below 1 micron were measured”.
Turning to `C[C@@H](c1ncncc1F)[C@](O)(Cn1cncn1)c1ccc(F)cc1F` [Example 4, Voriconazole free base], in data set [2], the “50% of particles (D[v,0.50]) less than” value turned out to be 18 microns and the “90% of particles (D[v,0.9]) less than” value worked out at 41 microns. This compound also had a volume mean diameter in data set [2] (sieved through 30 mesh) of 22 microns.
With `O=C(O)C(O)C(O)C(=O)O.c1cnc2cc3c(cc2n1)C1CNCC3C1` [Example 5, 5,8,14-triazatetracyclo[10.3.1.0^2,11.0^4,9]-hexadeca-2(11),3,5,7,9-pentaene L-tartrate], in data set [3], the “5% of particles less than” value is on record as 5 microns and the “95% of the particles less than” value is 15 microns. Further, in data set [3] (delumped through 500 micron sieve), the volume mean diameter is on record as 10 microns.
In turn, `O=C(O)C(O)C(O)C(=O)O.c1cnc2cc3c(cc2n1)C1CNCC3C1` [seed, 5,8,14-triazatetracyclo[10.3.1.0^2,11.0^4,9]-hexadeca-2(11),3,5,7,9-pentaene (L)-tartrate] yielded a volume mean diameter in data set [4] of 2.7 microns.
